From PubChem BioAssay (NCI) come the findings set out here.

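Compound exposure: 48 hours, 5 concentrations, 96-well plates. TGI marks complete inhibition of growth.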

Some test systems named below: SNB-19 CNS; SF-295 CNS; LOX IMVI melanoma; UACC-62 melanoma; HCT-15 colon; SW-620 colon; MOLT-4 leukemia; OVCAR-8 ovarian; SK-OV-3 ovarian; SK-MEL-5 melanoma; NCI-H522 lung.
Common to all, as to assay: DTP human tumour cell line panel, 48 h

On to `CCCCn1c(-c2ccccc2)cs/c1=N\N=C1C=C(C(C)(C)C)C(=O)C(C(C)(C)C)=C1`, for which the TGI in the assay with SNB-19 CNS, in the assay with SF-295 CNS, with LOX IMVI melanoma, with UACC-62 melanoma, in the assay on HCT-15 colon and with SW-620 colon was over 100 µM in each case. Also, the TGI in the assay on MOLT-4 leukemia and with OVCAR-8 ovarian was over 100 µM in each case.

As for `N#C/C(=C\c1ccc(O)c(O)c1)c1c(C#N)c(N)nn1-c1ccccc1`, the TGI is 42.4 µM with SNB-19 CNS; 47.7 µM with SF-295 CNS; 36.5 µM with SK-OV-3 ovarian; 44 µM with LOX IMVI melanoma; over 100 µM with UACC-62 melanoma; 36.8 µM with HCT-15 colon. Moreover, the TGI in the assay with SW-620 colon is over 100 µM; in the assay with SK-MEL-5 melanoma, 34.4 µM; with NCI-H522 lung it was 13.2 µM; in the assay with OVCAR-8 ovarian, 29.2 µM.

On to `C/C(=C1/N=C(c2cc([N+](=O)[O-])ccc2Cl)N(c2ccc(Br)cc2)C1=O)c1ccc(N(CCC#N)CCC#N)cc1C`, for which the TGI was over 100 µM with SNB-19 CNS; over 100 µM with SF-295 CNS; over 100 µM with SK-OV-3 ovarian; 29.1 µM in the assay with LOX IMVI melanoma; 97.5 µM in the assay with UACC-62 melanoma; 58.7 µM in the assay on HCT-15 colon. In addition, the TGI in the assay on SW-620 colon is 25.5 µM; in the assay with SK-MEL-5 melanoma it was over 100 µM; in the assay with MOLT-4 leukemia it was over 100 µM; in the assay with OVCAR-8 ovarian, over 100 µM.

Regarding `CCOC(=O)/C(Br)=C1\OC(=O)c2ccccc2-c2ccccc21`, the TGI with SF-295 CNS, with SK-OV-3 ovarian, with LOX IMVI melanoma, with UACC-62 melanoma, in the assay on HCT-15 colon and in the assay with SW-620 colon was over 100 µM throughout. Besides, the TGI in the assay with SK-MEL-5 melanoma was over 100 µM; with MOLT-4 leukemia, 65.5 µM; in the assay on NCI-H522 lung, 61.1 µM; in the assay on OVCAR-8 ovarian, over 100 µM.

As to `Oc1ccc(-c2c3ccccc3c(-c3ccc(O)cc3)c3ccccc23)cc1`, the TGI in the assay with SNB-19 CNS, in the assay with SF-295 CNS, in the assay on SK-OV-3 ovarian, in the assay with LOX IMVI melanoma, in the assay with UACC-62 melanoma and in the assay with HCT-15 colon was over 100 µM in each case. The TGI with SW-620 colon, in the assay on SK-MEL-5 melanoma, with MOLT-4 leukemia, with NCI-H522 lung and in the assay with OVCAR-8 ovarian was over 100 µM throughout.

`CCN(CC)CC1CCCCN1CC(=O)N1c2cc(Cl)ccc2NC(=O)CC1C` (stereo not drawn): the TGI in the assay on SNB-19 CNS, in the assay on SK-OV-3 ovarian, with LOX IMVI melanoma, in the assay on UACC-62 melanoma, in the assay with SW-620 colon and in the assay on SK-MEL-5 melanoma was over 100 µM in each case. Besides, the TGI in the assay with MOLT-4 leukemia, in the assay with NCI-H522 lung and in the assay with OVCAR-8 ovarian was over 100 µM each time.

Turning to `COc1ccc(CN(CCN(C)C)c2ccccn2)cc1` (tested in a mixture with another compound), the TGI in the assay on SNB-19 CNS, with SF-295 CNS, in the assay on SK-OV-3 ovarian, in the assay with HCT-15 colon, with SW-620 colon and with SK-MEL-5 melanoma was over 100 µM in each case. Besides, the TGI in the assay with MOLT-4 leukemia, in the assay with NCI-H522 lung and with OVCAR-8 ovarian was over 100 µM each time.

Turning to `COC1(OC)CC2C(=O)N(Cc3ccccc3)C1C(S(=O)(=O)c1ccccc1)C2C(C)S(=O)(=O)c1ccccc1` (stereo not drawn), the TGI with SNB-19 CNS, with SF-295 CNS, in the assay with SK-OV-3 ovarian, in the assay on LOX IMVI melanoma, in the assay with UACC-62 melanoma and in the assay with HCT-15 colon was over 100 µM in each case. For the same compound, the TGI with SW-620 colon, with SK-MEL-5 melanoma, in the assay on MOLT-4 leukemia, in the assay with NCI-H522 lung and in the assay with OVCAR-8 ovarian was over 100 µM in each case.

Consider `c1ccc2c(c1)nnn2CNc1ccc(N2CCCCC2)cc1`, for which the TGI in the assay with SNB-19 CNS, in the assay with SF-295 CNS, with SK-OV-3 ovarian, with LOX IMVI melanoma, in the assay with UACC-62 melanoma and in the assay on HCT-15 colon was over 100 µM in each case. Also, the TGI in the assay with SW-620 colon, with MOLT-4 leukemia, in the assay with NCI-H522 lung and in the assay with OVCAR-8 ovarian was over 100 µM each time.

As to `Cc1ccc2nc(N)[nH]c(=O)c2c1Sc1ccncc1`, the TGI was over 100 µM in the assay on SNB-19 CNS; over 100 µM in the assay on SF-295 CNS; over 100 µM with SK-OV-3 ovarian; over 100 µM in the assay with LOX IMVI melanoma; over 31.6 µM in the assay on UACC-62 melanoma; over 100 µM with HCT-15 colon. Moreover, the TGI with SW-620 colon, in the assay on SK-MEL-5 melanoma, in the assay with MOLT-4 leukemia, in the assay on NCI-H522 lung and in the assay with OVCAR-8 ovarian was over 100 µM throughout.

`Nc1cn(C2OC(CC(c3ccccc3)(c3ccccc3)c3ccccc3)C(O)C2O)c(=O)[nH]c1=O` (stereo not drawn): the TGI is over 100 µM in the assay with SNB-19 CNS; 99.7 µM in the assay on SF-295 CNS; 98.2 µM in the assay with SK-OV-3 ovarian; 35.2 µM with LOX IMVI melanoma; 28.5 µM in the assay with UACC-62 melanoma; 33.3 µM with HCT-15 colon. The TGI in the assay with SW-620 colon amounted to 28 µM; in the assay on SK-MEL-5 melanoma, 37.4 µM; with MOLT-4 leukemia, 63.4 µM; in the assay with NCI-H522 lung it was 38.3 µM; in the assay on OVCAR-8 ovarian, 89.6 µM.

For `CC(=O)Nc1ccc(-c2nnc(SCC(=O)Nc3cccc(C)c3)o2)cc1`, the TGI worked out at 22.9 µM in the assay on SF-295 CNS; 81.5 µM with SK-OV-3 ovarian; 15.6 µM with LOX IMVI melanoma; 20.9 µM in the assay with UACC-62 melanoma; 21.6 µM with HCT-15 colon; 25.4 µM in the assay on SW-620 colon. Also, the TGI in the assay with SK-MEL-5 melanoma is 23.1 µM; with MOLT-4 leukemia, over 100 µM; with NCI-H522 lung, 16.7 µM; with OVCAR-8 ovarian, 38.9 µM.

Regarding `O=C1NC(=O)C(C(=O)C(=O)Nc2cc(Cl)ccc2Cl)C(=O)N1`, the TGI in the assay with SNB-19 CNS, with SF-295 CNS, in the assay on SK-OV-3 ovarian, with UACC-62 melanoma, in the assay with HCT-15 colon and in the assay with SW-620 colon was over 100 µM throughout. In addition, the TGI with SK-MEL-5 melanoma, with MOLT-4 leukemia, in the assay on NCI-H522 lung and in the assay on OVCAR-8 ovarian was over 100 µM throughout.

As to `CC(C)OP(=O)(OC(C)C)C(=NCCO)NNc1ccc([N+](=O)[O-])cc1`, the TGI with SNB-19 CNS, in the assay with LOX IMVI melanoma, in the assay on UACC-62 melanoma, with HCT-15 colon, in the assay on SW-620 colon and in the assay on SK-MEL-5 melanoma was over 100 µM throughout. The TGI in the assay with MOLT-4 leukemia, in the assay with NCI-H522 lung and with OVCAR-8 ovarian was over 100 µM each time.

Turning to `O=c1oc2cc(O)ccc2c2[nH]c3cc(O)ccc3c12`, the TGI is over 100 µM in the assay on SNB-19 CNS; over 100 µM in the assay with SF-295 CNS; 63.1 µM in the assay on SK-OV-3 ovarian; 33.8 µM with LOX IMVI melanoma; 31.7 µM in the assay with UACC-62 melanoma; 81.8 µM with HCT-15 colon. For the same compound, the TGI in the assay with SW-620 colon is over 100 µM; in the assay on MOLT-4 leukemia, over 100 µM; in the assay with NCI-H522 lung it was 32.9 µM; with OVCAR-8 ovarian it was 78.7 µM.

Take `C[N+]1=C(c2cccnc2/C=N/O)OCC1(C)C`: the TGI with SNB-19 CNS, in the assay with SF-295 CNS, in the assay on SK-OV-3 ovarian, with LOX IMVI melanoma, in the assay on UACC-62 melanoma and in the assay on HCT-15 colon was over 100 µM in each case. Besides, the TGI in the assay on SW-620 colon, in the assay on SK-MEL-5 melanoma, in the assay with MOLT-4 leukemia, with NCI-H522 lung and in the assay with OVCAR-8 ovarian was over 100 µM throughout.

With `CCOC(=O)/C=C/n1c2ccccc2c(=O)c2cc(OC)ccc21`, the TGI in the assay on SNB-19 CNS was over 100 µM; in the assay on SF-295 CNS, over 100 µM; in the assay on SK-OV-3 ovarian it was over 100 µM; with LOX IMVI melanoma it was 41.3 µM; with UACC-62 melanoma, over 100 µM; in the assay with HCT-15 colon, over 100 µM. Moreover, the TGI in the assay on SK-MEL-5 melanoma, in the assay with MOLT-4 leukemia, in the assay on NCI-H522 lung and with OVCAR-8 ovarian was over 100 µM throughout.

For the compound `[N-]=[N+]=CC(=O)C1(C(=O)C=[N+]=[N-])CC1`, the TGI in the assay with SNB-19 CNS, in the assay with SF-295 CNS, in the assay on SK-OV-3 ovarian, with LOX IMVI melanoma, in the assay on HCT-15 colon and in the assay on SW-620 colon was over 100 µM each time. The TGI in the assay on SK-MEL-5 melanoma, in the assay on MOLT-4 leukemia, in the assay on NCI-H522 lung and with OVCAR-8 ovarian was over 100 µM each time.

With `Cc1ccc(S(=O)(=O)NC(=O)C2S(=O)(=O)OCCOS2(=O)=O)cc1`, the TGI in the assay with SNB-19 CNS, with SF-295 CNS, with SK-OV-3 ovarian, in the assay with UACC-62 melanoma, with SW-620 colon and in the assay on SK-MEL-5 melanoma was over 100 µM each time. Also, the TGI in the assay with NCI-H522 lung and with OVCAR-8 ovarian was over 100 µM throughout.

The TGI is the concentration at which net growth stops. A lower TGI goes with greater sensitivity of the cells.
